The target in experiment [1] is T1, human 5-HT1A serotonergic receptor (Homo sapiens, UniProt P08908).
T1 construct: expressed in transfected cells; host or cells: HeLa (human), stably transfected; cell membranes
T1 sequence (P08908 1-422): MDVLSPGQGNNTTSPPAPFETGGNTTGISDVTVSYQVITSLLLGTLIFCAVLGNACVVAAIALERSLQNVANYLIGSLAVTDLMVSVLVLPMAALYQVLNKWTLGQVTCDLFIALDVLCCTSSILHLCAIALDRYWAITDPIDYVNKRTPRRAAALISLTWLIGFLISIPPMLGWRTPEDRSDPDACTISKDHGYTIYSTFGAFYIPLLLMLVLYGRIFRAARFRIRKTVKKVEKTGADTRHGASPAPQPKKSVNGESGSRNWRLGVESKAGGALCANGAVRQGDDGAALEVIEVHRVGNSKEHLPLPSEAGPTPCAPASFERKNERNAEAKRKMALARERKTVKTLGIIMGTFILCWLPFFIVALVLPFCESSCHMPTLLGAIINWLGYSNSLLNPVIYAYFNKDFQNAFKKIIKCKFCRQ
Nature of the experiment: Radioreceptor binding to recombinant human 5-HT1A receptors ([3H]8-OH-DPAT, HeLa cell membranes). The protocol: Genomic clone G-21 coding for the human 5-HT1A serotonergic receptor is stably transfected in a human cell line (HeLa). HeLa cells were grown as monolayers in Dulbecco's modified Eagle's medium (DMEM), supplemented with 10% fetal calf serum and gentamicin ([…]), 5% CO2 at 37° C. Cells were detached from the growth flask at 95% confluence by a cell scraper and were lysed in ice-cold 5 mM Tris and 5 mM EDTA buffer (pH 7.4). Homogenates were centrifuged at 40000×g×20 min and pellets were resuspended in a small volume of ice-cold 5 mM Tris and 5 mM EDTA buffer (pH 7.4) and immediately frozen and stored at −70° C. until use. On the day of experiment, cell membranes were resuspended in binding buffer: 50 mM Tris HCl (pH 7.4), 2.5 mM MgCl2, 10 μM pargyline (Fargin et al., Nature 335, 358-360, 1988). Membranes were incubated in a final volume of 1 ml for 30 min at 30° C. with 0.2-1 nM [^3H]8-OH-DPAT, in absence or presence of competing drugs; non-specific binding was determined in the presence of 10 μM 5-HT. The incubation was stopped by addition of ice-cold Tris-HCl buffer and rapid filtration through 0.2% polyethyleneimine-pretreated Whatman GF/B or Schleieher & Schuell GF52 filters.
(§1) The inhibition of specific binding of the radioligands by the tested drugs was analyzed to estimate the IC50 value by using the non-linear curve-fitting program Allfit (De Lean et al., Am. J. Physiol. 235, E97-E102, 1978). The IC50 value is converted to an affinity constant (Ki) by the equation of Cheng & Prusoff (Cheng, Y. C.; Prusoff, W. H. Biochem. Pharmacol. 22, 3099-3108, 1973).

Experiment [2] addresses T2, 5-HT2A serotonergic receptors (Rattus norvegicus, UniProt P14842).
T2 construct: from tissue; host or cells: cerebral cortex of male Sprague Dawley rats, membranes
In words: Radioreceptor binding to native 5-HT2A serotonergic receptors ([3H]ketanserin, rat cerebral cortex membranes). Here is the method:
Binding studies on native 5-HT2A serotonergic receptors (Craig A. and Kenneth J., Life Sci. 38, 117-127, 1986) were carried out in membranes of rat cerebral cortex. Male Sprague Dawley rats (200-300 g, S D Harlan/Nossan, Italy) were killed by cervical dislocation and cerebral cortexes were excised and immediately frozen in liquid nitrogen and stored at −70° C. until use. Tissues were homogenized (2×20 sec) in 50 volumes of cold 50 mM Tris-HCl buffer pH 7.4, using a Polytron homogenizer (speed 7). Homogenates were centrifuged at 49000×g for 10 min, resuspended in 50 volumes of the same buffer, incubated at 37° C. for 15 min and centrifuged and resuspended twice more. The final pellets were suspended in 100 volumes of 50 mM Tris-HCl buffer pH 7.7. Membranes were incubated in a final volume of 1 ml for 20 min at 37° C. with 0.7-1.3 nM [^3H]ketanserin (5-HT2A receptors), in absence or presence of competing drugs. Non-specific binding was determined in the presence of 2 μM ketanserin. The incubation was stopped by addition of ice-cold 50 mM Tris-HCl buffer and rapid filtration through 0.2% polyethyleneimine pretreated Whatman GF/B or Schleicher & Schuell GF52 filters. The filters are then washed with ice-cold buffer and the radioactivity retained on the filters was counted by liquid scintillation spectrometry.
as §1

For a further experiment, the target named is α1 adrenergic receptors. Nature of the experiment: Radioreceptor binding to native α1 adrenergic receptors ([3H]prazosin, rat cerebral cortex membranes). The protocol:
Binding studies on native α1 adrenergic receptors were carried out in membranes of rat cerebral cortex. Male Sprague Dawley rats (200-300 g, Charles River, Italy) were killed by cervical dislocation and cerebral cortexes were dissected and immediately frozen and stored at −70° C. until use. Tissue was homogenized (2×20 sec) in 50 volumes of cold 50 mM Tris-HCl buffer pH 7.4, using a Polytron homogenizer (speed 7). Homogenates were centrifuged at 48000×g for 10 min, resuspended in 50 volumes of the same buffer, incubated at 37° C. for 15 min and centrifuged and resuspended twice more. The final pellets were suspended in 100 volumes of 50 mM Tris-HCl buffer pH 7.4, containing 10 μM pargyline and 0.1% ascorbic acid. Membranes were incubated in a final volume of 1 ml for 30 min at 25° C. with 0.1-0.5 nM [^3H]prazosin, in the absence or presence of competing drugs; non-specific binding was determined in the presence of 10 μM phentolamine.
The incubation was stopped by addition of ice-cold 50 mM Tris-HCl buffer and rapid filtration through 0.2% polyethyleneimine-pretreated Whatman GF/B or Schleicher & Schuell GF52 filters. The filters were then washed with ice-cold buffer and the radioactivity retained on the filters counted by liquid scintillation spectrometry.
as §1

The test system of experiment [3] is rhythmic bladder voiding contractions. Nature of the experiment: Volume-induced rhythmic bladder voiding contractions in anaesthetized rats. The format is in vivo, rat. As to conditions: for ED10min: extrapolated dose inducing 10 min of disappearance of the contractions; for ED50: Rattus norvegicus. The protocol:
Female Sprague Dawley rats weighing 225-275 g (Crl: CDo BR, Charles River Italia) were used. The animals were housed with free access to food and water and were maintained on a forced 12 h alternating light-dark cycle at 22-24° C. for at least one week, except during the experiment. The activity on the rhythmic bladder voiding contractions was evaluated according to the method of Dray (J. Pharmacol. Methods, 13:157, 1985), with some modifications as in Guarneri (Pharmacol. Res., 27:173, 1993). Briefly, rats were anesthetized by subcutaneous injection of 1.25 g/kg (5 ml/kg) urethane, after which the urinary bladder was catheterized via the urethra using PE 50 polyethylene tubing filled with physiological saline. The catheter was tied in place with a ligature around the external urethral orifice and was connected with conventional pressure transducers (Statham P23 ID/P23 XL). […] The bladder was then filled via the recording catheter by incremental volumes of warm (37° C.) saline until reflex bladder voiding contractions occurred (usually 0.8-1.5 ml). For intravenous (i.v.) injection of bioactive compounds, PE 50 polyethylene tubing filled with physiological saline was inserted into the jugular vein.
From the cystometrogram, the number of contractions recorded 15 min before (basal values) and after treatment, as well as the mean amplitude of these contractions (mean height of the peaks in mm Hg) was evaluated.
Since most compounds produced an effect that was relatively rapid in onset and led to a complete cessation of bladder contractions, bioactivity was conveniently estimated by measuring the duration of bladder quiescence (i.e., the duration of time during which no contractions occurred). Moreover, the number of animals tested showing a reduction in the number of contractions >30% of that observed in the basal period, was recorded. […] Also computed in this manner were extrapolated doses which induced a reduction of the number of contractions of greater than 30% in 50% of treated rats (ED50, frequency) by the method of Bliss (Bliss C. I., Quart. J. Pharm. Pharmacol. 11, 192-216, 1938). After the suppressive effects of drug injection wore off, the height of the contractile peaks was compared with the height of the peaks previously recorded after the control intravenous administration of vehicle. The potency of the tested compounds (ED50 value, the extrapolated doses inducing a 30% reduction of amplitude of the contractions in 50% of treated rats) was evaluated on a quantal basis by the method of Bliss (Bliss C. I., Quart. J. Pharm. Pharmacol. 11, 192-216, 1938).

The mark [4] stands for this setting: recombinant human receptor in HeLa membranes, [3H]8-OH-DPAT, read-out: Ki 5-HT1A.
The mark [5] stands for this setting: rat cerebral cortex membranes, [3H]ketanserin, read-out: Ki 5-HT2A.
Where [6] appears, read: intravenous administration, anaesthetized rats.
Where [7] appears, read: intravenous administration, anaesthetized rats, extrapolated dose inducing a reduction of the number of contractions >30% in 50% of treated rats, read-out: ED50 (frequency).
[8] abbreviates: intravenous administration, anaesthetized rats, extrapolated dose inducing 30% reduction of amplitude of the contractions in 50% of treated rats, n.a. = not active, no significant reduction of the height of peaks, read-out: ED50 (amplitude).

Where a name gives a salt, the structure may show the parent alone. Read-outs that look alike come from different tables or passages of the source.

In general, Ki refers to the dissociation constant of the complex between target and ligand, obtained from inhibition or displacement. A word on the ED50: it is the dose at which the effect has come halfway, by size or by number of responders.

T2 sequence (P14842 whole entry): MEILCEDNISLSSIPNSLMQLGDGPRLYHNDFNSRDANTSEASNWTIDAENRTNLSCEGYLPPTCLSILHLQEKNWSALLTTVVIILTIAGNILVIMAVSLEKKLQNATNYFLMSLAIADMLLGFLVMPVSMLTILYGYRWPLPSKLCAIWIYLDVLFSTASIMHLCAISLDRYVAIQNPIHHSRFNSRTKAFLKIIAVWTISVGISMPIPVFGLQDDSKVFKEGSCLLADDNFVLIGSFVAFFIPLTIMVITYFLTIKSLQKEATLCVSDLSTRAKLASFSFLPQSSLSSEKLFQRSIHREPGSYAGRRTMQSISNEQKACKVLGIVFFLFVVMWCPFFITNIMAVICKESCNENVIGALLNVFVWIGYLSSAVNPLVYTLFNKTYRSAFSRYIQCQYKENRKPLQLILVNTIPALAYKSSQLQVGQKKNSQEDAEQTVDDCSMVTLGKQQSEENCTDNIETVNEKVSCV

`COc1ccccc1N1CCN(CCC(c2ccccc2)c2ccccc2)CC1` [Ex. 1, 1-(3,3-diphenylpropyl)-4-(2-methoxyphenyl)piperazine hydrochloride]: the inhibition constant (Ki) stood at 3.9 nM in experiment [1] (setting [4]), 320 nM in experiment [2] (setting [5]) and 145 nM at α1 adrenergic receptors.
For `c1ccc(C(CCN2CCN(c3cccc4c3OCCO4)CC2)c2ccccc2)cc1` [Ex. 2, 1-(3,3-diphenylpropyl)-4-[5-(2,3-dihydro-1,4-benzodioxinyl)]piperazine methanesulphonate], the Ki in experiment [1] (setting [4]) came to 0.6 nM; in experiment [2] (setting [5]), 159 nM; on α1 adrenergic receptors, 208 nM.
Take `COc1ccccc1N1CCN(CCN(c2ccccn2)c2ccccn2)CC1.Cl` [Ex. 5, 1-[N-N-bis-(2-pyridyl)-2-aminoethyl]-4-(2-methoxyphenyl)piperazine hydrochloride]: the ED10min in experiment [3] (setting [6]) was 0.523 mg/kg. The “ED50 (frequency)” value in experiment [3] (intravenous administration, anaesthetized rats, extrapolated dose inducing a reduction of the number of contractions >30% in 50% of treated rats) is 0.077 mg/kg.
As to `COc1ccccc1N1CCN(CCC(C#N)(c2ccccn2)c2ccccn2)CC1` [Ex. 6, 1-[3-cyano-3,3-bis-(2-pyridyl)propyl]-4-(2-methoxyphenyl)piperazine], the ED50 in experiment [3] (setting [7]) was 0.093 mg/kg. In experiment [3] (setting [6]), the ED10min was 0.225 mg/kg. The inhibition constant Ki in experiment [1] amounted to 13.3 nM; on α1 adrenergic receptors, 1250 nM.
With `COc1ccccc1N1CCN(CCC(C#N)(c2ccccc2)c2ccccn2)CC1.Cl.Cl` (stereo not shown) [Ex. 7, 1-[3-cyano-3-phenyl-3-(2-pyridyl)propyl]-4-(2-methoxyphenyl)piperazine dihydrochloride], the median effective dose (ED50) in experiment [3] (iv, read-out: ED50 (frequency)) was found to be 0.018 mg/kg. For the same compound, the ED10min in experiment [3] (setting [6]) was 0.078 mg/kg. The Ki in experiment [1] (setting [4]) was 7.7 nM; in experiment [2] it was 140 nM; on α1 adrenergic receptors, 396 nM.
In the case of `COc1ccccc1N1CCN(CCC(c2ccccn2)c2ccccn2)CC1` [Ex. 8, 1-[3,3-bis-(2-pyridyl)propyl]-4-(2-methoxyphenyl)piperazine], in experiment [3] (setting [7]), the ED50 was 0.0025 mg/kg. In experiment [3] (setting [6]), the ED10min was 0.074 mg/kg. The values for the Ki (in experiment [1] (setting [4]); in experiment [2] (setting [5]); on α1 adrenergic receptors) were 3.97 nM, 320 nM and 191 nM, respectively.
With `COc1ccccc1N1CCN(CCN(c2ccccn2)c2ccccc2[N+](=O)[O-])CC1` [Ex. 11, 1-[N-(2-nitrophenyl)-N-(2-pyridyl)-2-aminoethyl]-4-(2-methoxyphenyl)-piperazine], the ED50 in experiment [3] (setting [7]) was 0.024 mg/kg. Besides, in experiment [3] (setting [6]), the ED10min is 0.162 mg/kg. Besides, the results for the Ki (in experiment [1] (setting [4]); at α1 adrenergic receptors) were 6.74 nM and 62.5 nM, respectively.
Turning to `COc1ccccc1N1CCN(CCC(C#N)(c2ccccc2)c2ccccc2[N+](=O)[O-])CC1` (stereo not shown) [Ex. 12, 1-[3-cyano-3-(2-nitrophenyl)-3-phenylpropyl]-4-(2-methoxyphenyl)piperazine], the Ki in experiment [1] worked out at 1.45 nM; in experiment [2] (setting [5]), 790 nM; at α1 adrenergic receptors it was 226 nM.
As to `COc1ccccc1N1CCN(CCC(C(N)=O)(c2ccccc2)c2ccccc2[N+](=O)[O-])CC1` (stereo not shown) [Ex. 13, 1-[3-aminocarbonyl-3-(2-nitrophenyl)-3-phenylpropyl]-4-(2-methoxyphenyl)-piperazine], the ED50 in experiment [3] (setting [7]) is 0.084 mg/kg. Moreover, the inhibition constant (Ki) was 2.3 nM in experiment [1] and 365 nM on α1 adrenergic receptors.
In the case of `COc1ccccc1N1CCN(CCC(C(N)=O)(c2ccccn2)c2ccccc2[N+](=O)[O-])CC1` (stereo not shown) [Ex. 17, 1-[3-aminocarbonyl-3-(2-nitrophenyl)-3-(2-pyridyl)propyl]-4-(2-methoxyphenyl)-piperazine], the inhibition constant Ki was 5.18 nM in experiment [1] and 307 nM on α1 adrenergic receptors.
Take `Cc1c(-c2ccccc2)oc2c(C(=O)OCCN3CCCCC3)cccc2c1=O` [Flavoxate, reference compound]: the “effect on the amplitude of the bladder contractions (in words)” value in experiment [3] (setting [6]) is listed as “did not affect the amplitude of the contractions”. Further, the ED10min in experiment [3] (intravenous administration, anaesthetized rats, in µg/kg) was above 10000.
Consider `CN(C)CCCN1c2ccccc2CCc2ccccc21` [Imipramine, reference compound], for which the 50% effective dose (ED50) in experiment [3] (setting [8]) was 2.93 mg/kg. The ED50 in experiment [3] (setting [7]) is 4.93 mg/kg. Besides, in experiment [3] (setting [6]), the “effect on the amplitude of the bladder contractions (in words)” value is on record as “did not affect the amplitude of the contractions” and the ED10min was above 6 mg/kg.
`CCN(CC)CC#CCOC(=O)C(O)(c1ccccc1)C1CCCCC1` (stereo not shown) [Oxybutynin, reference compound]: the ED50 in experiment [3] (setting [8]) is 0.24 mg/kg; in experiment [3] (setting [7]), 10 mg/kg. For the same compound, the ED10min in experiment [3] (setting [6]) was 7.77 mg/kg.

(Values after patent US6894052B1, “Diarylalkylpiperazines active on the lower urinary tract” (Recordati S.A. Chemical and Pharmaceutical Company, priority 1997, dated 2005).)
